According to patent US9670480B2, “Genome-wide construction of Schizosaccharomyces pombe heterozygous deletion mutants containing gene-specific barcodes by the methods of 4-round serial or block PCR, or total gene synthesis thereof” (Korea Research Institute of Bioscience and Biotechnology, priority 2008, dated 2017):

Assays:
[1] = system: smb1 heterozygous deletion mutant; test: Reconfirmation of GeneChip result on YES agar plates containing terbinafine; type: cell-based, Schizosaccharomyces pombe
Protocol: (§1) Since the drug's modes of action detected with the GeneChip might include the false positive signals resulting experiment errors and false chip analysis, all the top 10 drug's modes of action, except non-specific ribosome-related genes, were cultured again on YES agar plates containing terbinafine. […] Therefore, the genes erg1 and pmm1 within the red boxes were verified as being targets of terbinafine.

[2] = system: pmm1 heterozygous deletion mutant; test: as above; type: cell-based, Schizosaccharomyces pombe
Protocol: as §1

[3] = system: erg1 heterozygous deletion mutant; test: as above; type: cell-based, Schizosaccharomyces pombe
Protocol: as §1

Wild-type SP286 strain = test: IC50 measurement of growth inhibition in YES broth (final O.D600, Prism); type: cell-based; conditions: Schizosaccharomyces pombe, 30° C., 24 hours, read-out: IC50 (drug-induced inhibition against cell growth)
Protocol: In order to determine the concentration of the chemical for the treatment, 50% inhibitory concentration (IC50) was first measured. Wild-type SP286 strain was grown to O.D600=2.0 in YES broth and inoculated with from 5- to 10-fold serial dilutions of the chemical to O.D600=0.1, followed by incubation at 30° C. for 24 hours. At each concentration of the chemical, the cultures were measured for final O.D600 values which were then plotted against Log [Chemical Concentration]. On the basis of these plots, IC50 values were automatically calculated using Prism Software (version 3.0, GraphPad Software Inc., San Diego, Calif.). Scientific experience made it possible to determine the concentrations of the chemical at around the appropriate IC50 values.
In order to screen terbinafine's modes of action with the GeneChip, first, the treatment concentrations of drug were determined by the measurements of IC50 obtained in the above-mentioned method. In this regard, relative rates of drug-induced inhibition against cell growth were obtained by treating the cells with terbinafine at doses of 0.1 nM, 1 nM, 5 nM, 10 nM, 50 nM, 100 nM, 500 nM and […]. Analysis with Prism software determined IC50=40 nM (FIG. 11).

CN(C/C=C/C#CC(C)(C)C)Cc1cccc2ccccc12 [terbinafine]
plate reconfirmation of GeneChip-based mode of action, smb1 [1]: difference from the chip result
plate reconfirmation of GeneChip-based mode of action, pmm1 [2]: same results as in the chip
plate reconfirmation of GeneChip-based mode of action, erg1 [3]: same results as in the chip
IC50 (Wild-type SP286 strain): 0.04 µM
